Test results published in US20220274947A1, “NOVEL HETEROARYL-TRIAZOLE COMPOUNDS AS PESTICIDES” (Bayer Aktiengesellschaft, priority 2019, published 2022).

Experiments:
Type in all cases: in vivo
Rhipicephalus microplus [1] = assay: Rhipicephalus (Boophilus) microplus injection test (BOOPMI Inj); conditions: 168 h, injection into adult engorged female ticks, egg deposition after 7 days, read-out: activity (efficacy: 100% means all eggs are infertile); for pest or weed control at 0.004 mg: application rate 4 μg/tick; for pest or weed control at 0.02 mg: application rate 20 μg/tick
Method: Rhipicephalus (Boophilus) Microplus—Injection Test (BOOPMI Inj)
Solvent: dimethyl sulfoxide
To produce a suitable preparation of active compound, 10 mg of active compound are dissolved in 0.5 mL solvent, and the concentrate is diluted with solvent to the desired concentration.
Five adult engorged female ticks (Rhipicephalus microplus) are injected with 1 μL compound solution into the abdomen. The ticks are transferred into replica plates and incubated in a climate chamber.
After 7 days egg deposition of fertile eggs is monitored. Eggs where fertility is not visible are stored in a climate chamber till hatching after about 42 days. An efficacy of 100% means all eggs are infertile; 0% means all eggs are fertile.

Rhipicephalus microplus [2] = assay: Rhipicephalus (Boophilus) microplus in-vitro contact test, larval cattle tick, strain Parkhurst (BOOPMI Cont); conditions: application rate 5 μg/cm^2 (=500 g/ha), tick larvae, after 48 hours, read-out: activity (efficacy: 100% means all larvae are dead or moribund)
Method: Rhipicephalus (Boophilus) Microplus—In-Vitro Contact Tests Larval Cattle Tick (Strain Parkhurst, Resistant Against Synthetic Pyrethroids) (BOOPMI Cont)
9 mg compound is solved in 1 mL acetone and diluted with acetone to the desired concentration. 250 μL of the test solution is filled in 25 mL glass test tubes and homogeneously distributed on the inner walls by rotation and tilting on a shaking device (2 h at 30 rpm). With a compound concentration of 900 ppm, an inner surface of 44.7 cm^2 and a homogeneous distribution, a dose of 5 μg/cm^2 is achieved.
After the solvent has evaporated, each test tube is filled with 20-50 cattle tick larvae (Rhipicephalus microplus), closed with a perforated lid and incubated in a horizontal position at 85% relative humidity and 27° C. in an incubator. After 48 hours efficacy is determined. The larvae are patted on the ground of the tubes and negative geotactic behavior is recorded.
An efficacy of 100% means all larvae are dead or moribund; 0% means no larvae are dead or moribund.

Diabrotica balteata = Diabrotica balteata spray test; conditions: 168 h, wheat seeds, larvae, after 7 days, read-out: activity (efficacy: 100% means all seedlings have grown up like in the untreated, uninfected control); for pest or weed control at 32 µg/disc, 100 g/ha: application rate 100 g/ha (=32 μg/well); for pest or weed control at 160 µg/disc, 500 g/ha: application rate 500 g/ha (=160 μg/well)
Method: Diabrotica balteata—Spray Test Solvent: 78.0 parts by weight of acetone • • 1.5 parts by weight of dimethylformamide Emulsifier: alkylarylpolyglycol ether
To produce a suitable preparation of active compound, 1 part by weight of active compound is mixed with the stated amount of solvent, and the concentrate is diluted with water, containing an emulsifier concentration of 1000 ppm, to the desired concentration. Further test concentrations are prepared by dilution with emulsifier containing water.
Soaked wheat seeds (Triticum aestivum) are placed in a multiple well plate filled with agar and some water and are incubated for 1 day to germinate (5 seeds per well). The germinated wheat seeds are sprayed with a test solution containing the desired concentration of the active ingredient. Afterwards each unit is infected with 10-20 larvae of the banded cucumber beetle (Diabrotica balteata).
After 7 days efficacy in % is determined. 100% means all the seedlings have grown up like in the untreated, uninfected control; 0% means none of the seedlings have grown.

[3] = system: Musca domestica strain WHO—N; assay: Musca domestica test (MUSCDO surface treatment & contact assay); conditions: surface concentration 4 mg/m^2, glazed tile, exposure 30 minutes, 24 hours after contact, read-out: efficacy (mortality)
Method: Musca domestica Test (MUSCDO Surface Treatment & Contact Assay) Solvent: Aceton+2000 ppm rapeseed oil methyl ester (RME)
In order to produce a sufficient, active ingredient containing solution it is necessary to solve the test compound in the solvent-mix (acetone at 2 mg/ml/RME 2000 ppm). This solution is pipetted onto a glazed tile and after evaporation of the acetone, adult flies of the species Musca domestica strain WHO—N are placed onto the dried surface. The exposure time is 30 minutes. Mortality in percent (%) is determined 24 hours after contact of the insects to the treated surface. 100% mortality means that all tested insects are dead, whereas 0% means that no insect died.

Spodoptera frugiperda = Spodoptera frugiperda spray test; conditions: in Zea mays, 168 h, read-out: activity (mortality)
Method: Spodoptera Fruaiperda—Spray Test
Solvent: 78.0 parts by weight acetone • 1.5 parts by weight dimethylformamide Emulsifier: alkylarylpolyglycol ether
To produce a suitable preparation of active compound, 1 part by weight of active compound is mixed with the stated amount of solvents and is diluted with water, containing an emulsifier concentration of 1000 ppm, to the desired concentration. Further test concentrations are prepared by dilution with emulsifier containing water.
Maize (Zea mays) leaf sections are sprayed with a preparation of the active ingredient of the desired concentration. Once dry, the leaf sections are infested with fall armyworm larvae (Spodoptera frugiperda).
After 7 days mortality in % is determined. 100% means all caterpillars have been killed and 0% means none of the caterpillars have been killed.

Rhipicephalus sanguineus = Rhipicephalus sanguineus in-vitro contact test, adult brown dog ticks (RHIPSA Cont); conditions: 48 h, after 48 hours, read-out: activity (efficacy: 100% means all ticks are dead or moribund); for pest or weed control at 5 µg/cm2, 500 g/ha: application rate 5 μg/cm^2 (=500 g/ha); for pest or weed control at 1 µg/cm2, 100 g/ha: application rate 1 μg/cm^2 (=100 g/ha)
Method: Rhipicephalus sanguineus-In-Vitro Contact Tests with Adult Brown Dog Ticks ([…] Cont) 9 mg compound is solved in 1 mL acetone and diluted with acetone to the desired concentration. 250 μL of the test solution is filled in 25 mL glass test tubes and homogeneously distributed on the inner walls by rotation and tilting on a shaking device (2 h at 30 rpm). […] After 48 hours efficacy is determined. The ticks are patted on the ground of the tubes and are incubated on a heating plate at 45-50° C. for at most 5 minutes. Immotile or uncoordinated moving ticks, which are not able to escape the heat by climbing upwards, are marked as dead or moribund.

Myzus persicae = Myzus persicae oral test; conditions: 120 h, read-out: activity (mortality)
Method: Myzus persicae—Oral Test Solvent: 100 parts by weight acetone
To produce a suitable preparation of active compound, 1 part by weight of active compound is mixed with the stated amount of solvent, and the concentrate is diluted with water to the desired concentration.
50 μL compound solution is filled in microtiter plates and 150 μL IPL41 insect medium (33%+15% sugar) is added to obtain a total volume of 200 μL per well. Afterwards the plates are sealed with parafilm through which a mixed population of the green peach aphid (Myzus persicae) can suck on the compound preparation.
After 5 days mortality in % is determined. 100% means all aphids have been killed and 0% means none of the aphids have been killed.

Ctenocephalides felis = Ctenocephalides felis oral test (CTECFE Oral); conditions: 48 h, read-out: activity (mortality)
Method: Ctenocephalides felis—Oral Test (CTECFE Oral) Solvent: dimethyl sulfoxide
To produce a suitable preparation of active compound, 10 mg of active compound are dissolved in 0.5 mL solvent, and the concentrate is diluted with cattle blood to the desired concentration.
Approximately 20 adult unfed cat fleas (Ctenocephalides felis) are placed in flea chambers. The blood chamber, sealed with parafilm on the bottom, are filled with cattle blood supplied with compound solution and placed on the gauze covered top of the flea chamber, so that the fleas are able to suck the blood. The blood chamber is heated to 37° C. whereas the flea chamber is kept at room temperature.
After 2 days mortality in % is determined. 100% means all the fleas have been killed; 0% means none of the fleas have been killed.

[4] = system: Aedes aegypti strain MONHEIM; assay: Aedes aegypti test (AEDSAE surface treatment & contact assay); conditions: exposure 30 minutes, 24 hours after contact, read-out: efficacy (mortality); for mortality at 20 mg/m2: surface concentration 20 mg/m^2, glazed tile
Method: Aedes aegypti Test (AEDSAE Surface Treatment & Contact Assay) Solvent: Aceton+2000 ppm rapeseed oil methyl ester (RME)
In order to produce a sufficient, active ingredient containing solution it is necessary to solve the test compound in the solvent-mix (acetone at 2 mg/ml/RME 2000 ppm). This solution is pipetted onto a glazed tile and after evaporation of the acetone, adult mosquitoes of the species Aedes aegypti strain MONHEIM are placed onto the dried surface. The exposure time is 30 minutes. Mortality in percent (%) is determined 24 hours after contact of the insects to the treated surface. 100% mortality means that all tested insects are dead, whereas 0% means that no insect died.

SMILES | pest or weed control at 0.004 mg (Rhipicephalus microplus [1]) [%] | pest or weed control at 0.02 mg (Rhipicephalus microplus [1]) [%] | pest or weed control at 5 µg/cm2 (Rhipicephalus microplus [2]) [%] | pest or weed control at 32 µg/disc, 100 g/ha (Diabrotica balteata) [%] | mortality at 100 g/ha (Spodoptera frugiperda) [%] | pest or weed control at 5 µg/cm2, 500 g/ha (Rhipicephalus sanguineus) [%] | mortality at 4 ppm (Myzus persicae) [%] | pest or weed control at 1 µg/cm2, 100 g/ha (Rhipicephalus sanguineus) [%] | other results
C[C@H](NC(=O)c1cc(Cl)cc(OC(F)(F)F)c1)c1nc(C2CC2)nn1-c1ccc(C#N)cn1 [I-33] | 100 | 100 | 100 | 100 |  |  |  |  | mortality at 4 mg/m2 [3]: 80 to 100%
CC(NC(=O)c1cc(Br)cc(C(F)(F)F)c1)c1nc(Cl)nn1-c1ccc(C#N)cn1 (stereo not drawn) [I-40] | 100 | 100 | 100 | 100 | 100 | 100 |  |  | 
CC(NC(=O)c1cncc(C(F)(F)F)c1)c1nc(Br)nn1-c1ccc(C#N)cn1 (stereo not drawn) [I-50] |  |  | 100 |  |  |  | 100 |  | 
COc1nc([C@H](C)NC(=O)c2cc(OC(F)(F)F)cc(C(F)F)c2)n(-c2ccc(C#N)cn2)n1 [I-63] |  |  | 100 | 100 | 100 |  | 100 |  | 
C[C@H](NC(=O)c1cc(Cl)cc(OC(F)(F)F)c1)c1ncnn1-c1cc(NC(=O)c2ccc(F)cc2)ccn1 [II-20] | 100 | 100 |  |  |  |  |  |  | mortality at 100 ppm (Ctenocephalides felis): 100%
Cc1nc([C@H](C)NC(=O)c2cc(Cl)cc(OC(F)(F)F)c2)n(-c2cc(C#N)ccn2)n1 [II-34] | 100 | 100 | 100 | 100 | 100 | 100 |  | 100 | mortality at 500 g/ha (Spodoptera frugiperda): 100%; pest or weed control at 160 µg/disc, 500 g/ha (Diabrotica balteata): 100%; mortality at 4 mg/m2 ([4]; surface concentration 4 mg/m^2, glazed tile): 80 to 100%; mortality at 20 mg/m2 [4]: 80 to 100%
Cc1nc([C@H](C)NC(=O)c2cccc(Cl)n2)n(-c2ccc(C#N)cn2)n1 [II-51] | 100 | 100 | 90 |  |  | 100 |  | 100 | 
Cc1nc([C@H](C)NC(=O)c2cccc(Br)n2)n(-c2ccc(C#N)cn2)n1 [II-59] | 100 | 100 |  |  |  | 80 |  | 80 | mortality at 100 ppm (Ctenocephalides felis): 90%
C[C@H](NC(=O)c1cc(Cl)cc(C(F)(F)C(F)(F)F)c1)c1ncnn1-c1ncc(Cl)s1 [II-68] | 80 | 100 | 100 | 100 |  | 100 |  |  | mortality at 500 g/ha (Spodoptera frugiperda): 83%; pest or weed control at 160 µg/disc, 500 g/ha (Diabrotica balteata): 100%
C[C@H](NC(=O)c1cc(C(F)(F)F)cc(C(F)(F)F)c1)c1ncnn1-c1cc(C(=O)NCC(F)(F)F)ccn1 [II-87] |  |  | 80 | 100 | 100 |  | 100 |  | 
C[C@H](NC(=O)c1cc(C(F)(F)F)cc(C(F)(F)F)c1)c1ncnn1-c1cc(C(=O)NCC#N)ccn1 [II-89] | 80 |  | 80 | 100 |  |  | 100 |  | mortality at 0.8 ppm (Myzus persicae): 100%
CC(C)Oc1cc(Br)cc(C(=O)N[C@@H](C)c2ncnn2-c2ccc(C#N)cn2)c1 [II-108] | 80 |  | 90 | 100 | 100 |  |  | 80 | 
C[C@H](NC(=O)c1cc(Cl)cc(C(F)F)c1)c1ncnn1-c1ccc(C#N)cn1 [II- 12] |  |  |  |  |  |  |  |  | mortality at 20 mg/m2 [4]: 80 to 100%
